# Patent publication US7956077B2, “2-{-3,′2-(phenyl)-oxazol-4-ylmethoxyl-cyclohexyl methoxy}-propionic acid derivatives used as peroxisome proliferator-activated receptor (PPAR) ligands for the treatment of hyperlipidemia and diabetes” (Sanofi-Aventis Deutschland GmbH, priority 2004, dated 2011)
# Legend:
# human PPARalpha = target: T1, human PPARalpha (Homo sapiens, UniProt Q07869); assay: Cellular PPARalpha assay (stably transfected HEK luciferase reporter cell line); type: cell-based; settings: PPARalpha reporter cell line (HEK, GR-GAL4-humanPPARalpha-LBD), 24 h incubation
# T1 construct: human PPARalpha receptor (amino acids S167-Y468); expressed in transfected cells; host or cells: HEK cells, stably transfected (pcDNA3 construct)
# T1 sequence (Q07869 167-468): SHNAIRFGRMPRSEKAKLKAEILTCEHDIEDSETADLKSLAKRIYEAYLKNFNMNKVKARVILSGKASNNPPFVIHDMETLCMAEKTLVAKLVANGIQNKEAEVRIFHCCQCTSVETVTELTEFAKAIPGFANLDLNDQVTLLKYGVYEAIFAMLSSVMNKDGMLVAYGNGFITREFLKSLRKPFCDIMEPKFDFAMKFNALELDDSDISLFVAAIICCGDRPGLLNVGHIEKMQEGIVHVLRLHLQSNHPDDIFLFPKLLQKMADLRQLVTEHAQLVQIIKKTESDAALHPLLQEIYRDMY
# Protocol: Determination of EC50 Values of PPAR Agonists in the Cellular PPARalpha Assay
# The potency of substances which bind to human PPARalpha and activate it in an agonistic manner is analyzed using a stably transfected HEK cell line (HEK=human embryo kidney) which is referred to here as PPARalpha reporter cell line. It contains two genetic elements, a luciferase reporter element (pdeltaM-GAL4-Luc-Zeo) and a PPARalpha fusion protein (GR-GAL4-humanPPARalpha-LBD) which mediates expression of the luciferase reporter element depending on a PPARalpha ligand. The stably and constitutively expressed fusion protein GR-GAL4-humanPPARalpha-LBD binds in the cell nucleus of the PPARalpha reporter cell line via the GAL4 protein portion to the GAL4 DNA binding motifs 5′-upstream of the luciferase reporter element which is stably integrated in the genome of the cell line. There is only little expression of the luciferase reporter gene without addition of a PPARalpha ligand if fatty acid-depleted fetal calf serum (cs-FCS) is used in the assay. PPARalpha ligands bind and activate the PPARalpha fusion protein and thereby bring about expression of the luciferase reporter gene. The luciferase which is formed can be detected by means of chemiluminescence via an appropriate substrate.
# Construction of the Cell Line
# The PPARalpha reporter cell line was prepared in two steps. Firstly, the luciferase reporter element was constructed and stably transfected into HEK cells. For this purpose, five binding sites of the yeast transcription factor GAL4 (in each case 5′-CGGAGTACTGTCCTCCGAG-3′) were cloned in 5′-upstream of a 68 bp-long minimal MMTV promoter (Genbank Accession # V01175). The minimal MMTV promoter section contains a CCAAT box and a TATA element in order to enable efficient transcription by RNA polymerase II. The cloning and sequencing of the GAL4-MMTV construct took place in analogy to the description of Sambrook J. et. al. (Molecular cloning, Cold Spring Harbor Laboratory Press, 1989). Then the complete Photinus pyralis luciferase gene (Genbank Accession # M15077) was cloned in 3′-downstream of the GAL4-MMTV element. After sequencing, the luciferase reporter element consisting of five GAL4 binding sites, MMTV promoter and luciferase gene was subcloned into a plasmid which confers zeozin resistance in order to obtain the plasmid pdeltaM-GAL4-Luc-Zeo. This vector was transfected into HEK cells in accordance with the statements in Ausubel, F. M. et al. (Current protocols in molecular biology, Vol. 1-3, John Wiley & Sons, Inc., 1995).
# In a second step, the PPARalpha fusion protein (GR-GAL4-humanPPARalpha-LBD) was introduced into the stable cell clone described. For this purpose, initially the cDNA coding for the N-terminal 76 amino acids of the glucocorticoid receptor (Genbank Accession # P04150) was linked to the cDNA section coding for amino acids 1-147 of the yeast transcription factor GAL4 (Genbank Accession # P04386). The cDNA of the ligand-binding domain of the human PPARalpha receptor (amino acids S167-Y468; Genbank Accession # S74349) was cloned in at the 3′ end of this GR-GAL4 construct. The fusion construct prepared in this way (GR-GAL4-humanPPARalpha-LBD) was subcloned into the plasmid pcDNA3 (from Invitrogen) in order to enable constitutive expression therein by the cytomegalovirus promoter. This plasmid was linearized with a restriction endonuclease and stably transfected into the previously described cell clone containing the luciferase reporter element. The finished PPARalpha reporter cell line which contains a luciferase reporter element and constitutively expresses the PPARalpha fusion protein (GR-GAL4-humanPPARalpha-LBD) was isolated by selection with zeozin (0.5 mg/ml) and G418 (0.5 mg/ml).
# The activity of PPARalpha agonists is determined in a 3-day assay which is described below: […]
# human PPARgamma = target: T2, human PPARgamma (Homo sapiens, UniProt P37231); assay: Cellular PPARgamma assay (transiently transfected HEK cells, luciferase reporter); type: cell-based; settings: HEK cells transiently transfected with GAL4-humanPPARgammaLBD, 48 h incubation
# T2 construct: human PPARgamma receptor (amino acids 1152-Y475); expressed in transfected cells; host or cells: HEK cells, transiently transfected with pcDNA3-GAL4-humanPPARgammaLBD
# T2 sequence (P37231 182-477 isoform P37231-2 limits assumed): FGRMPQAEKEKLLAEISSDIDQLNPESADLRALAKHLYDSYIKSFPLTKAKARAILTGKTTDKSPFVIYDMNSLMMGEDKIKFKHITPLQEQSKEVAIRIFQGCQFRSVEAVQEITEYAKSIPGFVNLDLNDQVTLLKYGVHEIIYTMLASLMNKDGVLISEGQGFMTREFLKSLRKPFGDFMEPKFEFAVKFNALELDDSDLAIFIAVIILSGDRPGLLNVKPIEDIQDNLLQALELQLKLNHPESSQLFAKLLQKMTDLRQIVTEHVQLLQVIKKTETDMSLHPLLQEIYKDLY
# Excerpt: Determination of EC50 Values of PPAR Agonists in the Cellular PPARgamma Assay
# A transient transfection system is employed to determine the cellular PPARgamma activity of PPAR agonists. It is based on the use of a luciferase reporter plasmid (pGL3basic-5×GAL4-TK) and of a PPARgamma expression plasmid (pcDNA3-GAL4-humanPPARgammaLBD). Both plasmids are transiently transfected into human mbryonic kidney cells (HEK cells). There is then expression in these cells of the usion protein GAL4-humanPPARgammaLBD which binds to the GAL4 binding sites of he reporter plasmid. In the presence of a PPARgamma-active ligand, the activated usion protein GAL4-humanPPARgammaLBD induces expression of the luciferase reporter gene, which can be detected in the form of a chemiluminescence signal after addition of a luciferase substrate. As a difference from the stably transfected PPARalpha reporter cell line, in the cellular PPARgamma assay the two components (luciferase reporter plasmid and PPARgamma expression plasmid) are transiently transfected into HEK cells because stable and permanent expression of the PPARgamma fusion protein is cytotoxic.
# Construction of the Plasmids
# The luciferase reporter plasmid pGL3basic-5×GAL4-TK is based on the vector pGL3basic from Promega. The reporter plasmid is prepared by cloning five binding sites of the yeast transcription factor GAL4 (each binding site with the sequence 5′-CTCGGAGGACAGTACTCCG-3′), together with a 160 bp-long thymidine kinase promoter section (Genbank Accession # AF027128) 5′-upstream into pGL3basic. 3′-downstream of the thymidine kinase promoter is the complete luciferase gene from Photinus pyralis (Genbank Accession # M15077), which is already a constituent of the plasmid pGL3basic used. The cloning and sequencing of the reporter plasmid pGL3basic-5×GAL4-TK took place in analogy to the description in Sambrook J. et. al. (Molecular cloning, Cold Spring Harbor Laboratory Press, 1989).
# The PPARgamma expression plasmid pcDNA3-GAL4-humanPPARgammaLBD was prepared by first cloning the cDNA coding for amino acids 1-147 of the yeast transcription factor GAL4 (Genbank Accession # P04386) into the plasmid pcDNA3 (from Invitrogen) 3′-downstream of the cytomegalovirus promoter. Subsequently, the cDNA of the ligand-binding domain (LBD) of the human PPARgamma receptor (amino acids 1152-Y475; Accession # g1480099) 3′-downstream of the GAL4 DNA binding domain was cloned. Cloning and sequencing of the PPARgamma expression plasmid pcDNA3-GAL4-humanPPARgammaLBD again took place in analogy to the description in Sambrook J. et. al. (Molecular cloning, Cold Spring Harbor Laboratory Press, 1989). Besides the luciferase reporter plasmid pGL3basic-5×GAL4-TK and the PPARgamma expression plasmid pcDNA3-GAL4-humanPPARgammaLBD, also used for the cellular PPARgamma assay are the reference plasmid pRL-CMV (from Promega) and the plasmid pBluescript SK(+) from Stratagene. All four plasmids were prepared using a plasmid preparation kit from Qiagen, which ensured a plasmid quality with a minimal endotoxin content, before transfection into HEK cells.
# The activity of PPARgamma agonists is determined in a 4-day assay which is described below. Before the transfection, HEK cells are cultivated in DMEM medium (#41965-039, Invitrogen) which is mixed with the following additions: 10% FCS (#16000-044, Invitrogen), 1% penicillin-streptomycin solution (#15140-122, Invitrogen) and 2 mM L-glutamine (#25030-024, Invitrogen).
# Firstly, solution A, a transfection mixture which contains all four plasmids previously described in addition to DMEM medium, is prepared. […]
SMILES,EC50 (human PPARalpha) [nM],EC50 (human PPARgamma) [nM]
"CCCC(C)(OC[C@@H]1CCC[C@H](OCc2nc(-c3ccc(CC(C)C)cc3)oc2CC)C1)C(=O)O (mixture of isomers) [Example 12, 2-{(1R,3S)-3-[5-Ethyl-2-(4-isobutylphenyl)oxazol-4-ylmethoxy]cyclohexylmethoxy}-2-methylpentanoic acid]",12,75
"CCc1oc(-c2ccc(C)cc2)nc1CO[C@H]1CCC[C@@H](COC(C)(Cc2ccccc2)C(=O)O)C1 (mixture of isomers) [Example 17, 2-[(1R,3S)-3-(5-Ethyl-2-p-tolyloxazol-4-ylmethoxy)cyclohexylmethoxy]-2-methyl-3-phenylpropionic acid]",0.16,510
"CCc1oc(-c2cccc(OC)c2)nc1CO[C@H]1CCC[C@@H](COC(C)(C)C(=O)O)C1 [Example 1, 2-{(1R,3S)-3-[5-ethyl-2-(3-methoxyphenyl)oxazol-4-ylmethoxy]cyclohexylmethoxy}-2-methylpropionic acid]",45,930
"CCc1oc(-c2ccc(C(C)C)cc2)nc1CO[C@H]1CCC[C@@H](COC(C)(Cc2ccccc2)C(=O)O)C1 (mixture of isomers) [Example 20, 2-{(1R,3S)-3-[5-Ethyl-2-(4-isopropylphenyl)oxazol-4-ylmethoxy]cyclohexylmethoxy}-2-methyl-3-phenylpropionic acid]",0.54,170
"COc1cccc(-c2nc(CO[C@H]3CCC[C@@H](COC(C)(C)C(=O)O)C3)c(C(C)C)o2)c1 [Example 9, 2-{(1R,3S)-3-[5-lsopropyl-2-(3-methoxypheny)oxazol-4-ylmethoxy]cyclo-hexylmethoxy}-2-methyl propionic acid]",320,390
"CCc1oc(-c2ccc3ccccc3c2)nc1CO[C@H]1CCC[C@@H](COC(C)(C)C(=O)O)C1 [Example 4, 2-{(1R,3S)-3-[5-Ethyl-2-(napth-2-yl)oxazol-4-ylmethoxy]cyclohexylmethoxy}-2-methylpropionic acid]",2,1100
"Cc1oc(-c2ccc3ccccc3c2)nc1CO[C@H]1CCC[C@@H](COC(C)(C)C(=O)O)C1 [Example 7, 2-Methyl-2-{(1R,3S)-3-[5-methyl-2-(naphth-2-yl)oxazol-4-ylmethoxy]cyclo-hexylmethoxy}propionic acid]",1.2,2600
"CCc1oc(-c2cccc(OC)c2)nc1CO[C@H]1CCC[C@@H](COC(C)(Cc2ccccc2)C(=O)O)C1 (mixture of isomers) [Example 16, 2-{(1R,3S)-3-[5-Ethyl-2-(3-methoxyphenyl)oxazol-4-ylmethoxy]cyclohexylmethoxy}-2-methyl-3-phenylpropionic acid]",17,400
